Test results: patent US5631257A, “Benzoxazole derivatives” (Meiji Seika Kaisha, Ltd., priority 1993, dated 1997)
Where two headings read alike, the source gives them in different places.

Columns and labels:
[1] = test system: 5-HT3 receptor; assay: 5-HT3 receptor antagonism (inhibition of 5-HT-induced bradycardia in anesthetized mice); type: in vivo; conditions: 30 minutes before 5-HT 0.25 mg/kg i.v.
Method: In accordance with the procedure of Saxena et al. (Arch. Int. Pharmacodyn.,277, 235-252, 1985), each compound was dissolved in distilled water for injection to give different concentration and was administered intraperitoneally to mice which had been anesthetized with pentobarbital (3 animals per group), and ratio of inhibition of bradycardia induced by 5-HT administration (0.25 mg/kg, i.v.) was examined 30 minutes thereafter.

[2] = target: T1, 5-HT3 receptor (Mus musculus, UniProt P23979); assay: 5-HT3 receptor binding affinity (inhibition of [^3 H]-GR65630 binding); conditions: membrane fraction from rat N1E-115 cells
T1 construct: membrane fraction prepared from rat N1E-115 cells; endogenous in cells; host or cells: N1E-115 cells, membrane fraction
T1 sequence (P23979 24-483 isoform P23979-2 limits assumed): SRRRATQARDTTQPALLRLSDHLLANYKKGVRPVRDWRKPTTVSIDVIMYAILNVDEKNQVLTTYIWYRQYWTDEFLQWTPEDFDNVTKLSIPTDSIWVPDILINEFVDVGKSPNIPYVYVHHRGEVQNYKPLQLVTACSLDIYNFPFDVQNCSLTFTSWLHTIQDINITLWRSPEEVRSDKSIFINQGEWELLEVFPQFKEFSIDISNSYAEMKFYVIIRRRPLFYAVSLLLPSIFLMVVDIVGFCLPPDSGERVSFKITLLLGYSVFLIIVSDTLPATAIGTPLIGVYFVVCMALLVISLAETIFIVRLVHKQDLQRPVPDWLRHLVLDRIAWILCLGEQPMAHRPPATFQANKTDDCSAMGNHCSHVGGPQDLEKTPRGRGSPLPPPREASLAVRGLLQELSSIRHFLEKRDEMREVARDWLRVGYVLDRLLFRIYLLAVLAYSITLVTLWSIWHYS
Description: Using a membrane fraction prepared from rat N1E-115 cells in accordance with the procedure of Lummis et al. (European Journal of Pharmacology, 189, 223-227, 1990), effects of the inventive compounds to inhibit binding of [^3 H]-GR65630 which was radioligand 5-HT3 antagonist to 5-HT3 receptor were examined, with the results shown in Table 1.

[3] = test system: cisplatin-treated dogs; assay: Antiemetic effect in cisplatin-treated dogs; type: in vivo; conditions: 0.1 × 2 mg/kg i.v., 30 minutes before and 2 hours after cisplatin 3 mg/kg i.v.; observed over 6 hours; control 13.5
Method: Each of test dogs (2 animals per group) after 16 hours of fasting was fed with 200 g of a solid food, and cisplatin was administered to the animal 30 minutes thereafter by intravenous injection with a dose of 3 mg/kg. The test compound was dissolved in distilled water for injection and was administered by intravenous injection 30 minutes before and 2 hours after the cisplatin administration, and frequency and duration of emesis were observed over 6 hours.

[4] = 10^-7 M, read-out: Binding inhibitory ratio of [^3 H]-GR65630 at 10^-7 M
[5] = read-out: Binding inhibitory ratio of [^3 H]-GR65630 at 10^-7 M, 10^-7 M

inhibition at 0.1 µM [2, 4] [%] | Compound | further results
 | C[N+]1(C)CCN(c2nc3ccccc3o2)CC1 [Example 2, 1,1-Dimethyl-4-(benzoxazol-2-yl)piperazinium iodide] | inhibition at 0.1 µM [2, 5]: 45.5%
 | C=CC[N+]1(C)CCN(c2nc3ccccc3o2)CC1 [Example 4, 1-Allyl-1-methyl-4-(benzoxazol-2-yl)piperazinium chloride] | inhibition at 0.1 µM [2, 5]: 48%
78 | C[N+]1(CCO)CCN(c2nc3ccccc3o2)CC1.[I-] [Example 5, 1-(2-Hydroxyethyl)-1-methyl-4-(benzoxazol-2-yl)piperazinium iodide] | Inhibitory ratio (bradycardia induced by 5-HT) ([1]; 0.3 mg/kg i.p.): 61%
97.3 | CN1CCCN(c2nc3ccccc3o2)CC1 [Example 13, 2-(4-Methyl-1-homopiperazinyl)benzoxazole] | 
44.4 | C[N+]1(C)CCCN(c2nc3ccccc3o2)CC1 [Example 14, 1,1-Dimethyl-4-(benzoxazol-2-yl)homopiperazinium iodide] | 
46 | C[N+]1(CCO)CCCN(c2nc3ccccc3o2)CC1 (centres unmarked) [Example 16, 1-(2-Hydroxyethyl)-1-methyl-4-(benzoxazol-2-yl)homo-piperazinium iodide] | 
54.3 | OCCN1CCCN(c2nc3ccccc3o2)CC1 [Example 19, 2-[4-(2-Hydroxyethyl)-1-homopiperazinyl]benzoxazole] | 
51.6 | C=CC[N+]1(C)CCN(c2nc3ccc(O)cc3o2)CC1 [Example 22, 1-Allyl-1-1-methyl-4-(6-hydroxybenzoxazol-2-yl)piperazinium iodide] | 

Compound | inhibition at 0.1 µM [2, 4] [%] | further results
CN1CCN(c2nc3ccccc3o2)CC1 [Example 1, 2-(4-Methyl-1-piperazinyl)benzoxazole] | 89.4 | Inhibitory ratio (bradycardia induced by 5-HT) ([1]; 3 mg/kg i.p.): 76%
C=CC[N+]1(C)CCN(c2nc3ccccc3o2)CC1.[I-] [Example 3, 1-Allyl-1-methyl-4-(benzoxazol-2-yl)piperazinium iodide] | 52.8 | Inhibitory ratio (bradycardia induced by 5-HT) ([1]; 0.3 mg/kg i.p.): 82%; Frequency of emesis [3]: 0 times
